{"source": "paper PMC10349806", "about": "(Nature Communications, 2023)", "key": {"PfCRT variant E271A": {"target": "T1, PfCRT variant E271A (Plasmodium falciparum, UniProt Q9N623, A220S/I356T/K76T/M74I/N326S/N75E/Q271A/R371I)", "T1 sequence (Q9N623 1-424 M74I/N75E/K76T/A220S/Q271A/N326S/I356T/R371I)": "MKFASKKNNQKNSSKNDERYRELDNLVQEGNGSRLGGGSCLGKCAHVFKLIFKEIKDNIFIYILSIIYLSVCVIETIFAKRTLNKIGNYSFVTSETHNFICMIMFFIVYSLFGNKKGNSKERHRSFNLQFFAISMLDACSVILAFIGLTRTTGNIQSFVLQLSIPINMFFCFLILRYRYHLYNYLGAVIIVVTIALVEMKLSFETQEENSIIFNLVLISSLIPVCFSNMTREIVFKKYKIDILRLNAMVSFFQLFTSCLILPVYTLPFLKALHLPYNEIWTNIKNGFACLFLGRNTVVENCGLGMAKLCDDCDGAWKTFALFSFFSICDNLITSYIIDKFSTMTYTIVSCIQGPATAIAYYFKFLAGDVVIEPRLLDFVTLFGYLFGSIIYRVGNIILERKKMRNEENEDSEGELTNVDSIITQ", "assay": "CQ uptake assay, oocytes expressing E271A", "format": "cell-based", "description": "Site-directed mutagenesis of PfCRT^Dd2 was performed as described using the megaprimer method with overlap extension[21],[54]. The primer pairs used are listed in Supplementary Table 6. Please note that a codon-optimized and oocyte-adapted version of PfCRT^Dd2 was used[22] (Supplementary Fig. 16). The resulting DNA fragment was cloned into the SP64T expression vector and verified by sequencing.\nOocytes were obtained as described previously. Briefly, adult (>2 years old) female X. laevis frogs (NASCO) were anesthetized in a cooled solution of ethyl 3-amino benzoate methanesulfonate (0.1%, w/v), followed by a surgical removal of parts of the ovary. The ovary lobes were carefully dissected and small pieces of oocytes were incubated in Ca^2+-free ND96 buffer (96 mM NaCl, 2 mM KCl, 1 mM MgCl2 buffered with 5 mM HEPES/NaOH, pH 7.5) supplemented with collagenase D (0.1%, w/v; Roche), BSA (0.5%, w/v), and 9 mm Na2HPO4 at 18 °C for 14-16 h while gentle shaking. After incubation, the oocytes were carefully washed several times with ND96 buffer (96 mM NaCl, 2 mM KCl, 1.8 mM CaCl2, 1 mM MgCl2 buffered with 5 mM HEPES/NaOH, pH 7.5) supplemented with 100 mg l^−1 gentamycin). Defolliculated and healthy-looking stage V-VI oocytes were manually selected for RNA microinjection. The RNA was generated as following: The codon-optimized sequences of PfCRT variants were cloned into the pSP64T expression vector. After vector linearization using the restriction endonucleases BamHI or SalI (New England Biolabs), transcription was performed using the in vitro SP6 mMessage mMachine Kit (Ambion)[34]. The obtained RNA was kept at −80 °C and diluted with nuclease-free water to a concentration of 0.6 μg μl^−1. Precision-bore glass capillary tubes (3.5-inch glass capillaries; Drummond Scientific Co.) were pulled on a vertical puller (P-87 Flaming/Brown micropipette puller, Sutter Instrument Co.), graduated, and placed on a microinjector (Nanoject II Auto-Nanoliter Injector, Drummond Scientific Co.). 50 nl of nuclease-free water alone (control oocytes) or 50 nl of 0.6 μg μl^−1 RNA were injected under stereomicroscopic control. Injected oocytes were incubated for 46–72 h at 18 °C with twice-daily buffer changes before usage in experiments.\nDrug uptake assays were performed as described previously[21],[22],[24],[34]. […] Oocytes that were injected with water instead of RNA were analyzed in parallel, representing the uptake of a drug by diffusion and/or endogenous permeation pathways. […] The specific PfCRT-mediated uptake was determined by subtracting the corresponding background value measured in water-injected oocytes from that of PfCRT-expressing oocytes. […]"}, "PfCRT^Dd2": {"target": "PfCRT^Dd2 (Plasmodium falciparum, UniProt Q9N623, A220S/I356T/K76T/M74I/N326S/N75E/Q271E/R371I)", "sequence (Q9N623 whole entry A220S/I356T/K76T/M74I/N326S/N75E/Q271E/R371I)": "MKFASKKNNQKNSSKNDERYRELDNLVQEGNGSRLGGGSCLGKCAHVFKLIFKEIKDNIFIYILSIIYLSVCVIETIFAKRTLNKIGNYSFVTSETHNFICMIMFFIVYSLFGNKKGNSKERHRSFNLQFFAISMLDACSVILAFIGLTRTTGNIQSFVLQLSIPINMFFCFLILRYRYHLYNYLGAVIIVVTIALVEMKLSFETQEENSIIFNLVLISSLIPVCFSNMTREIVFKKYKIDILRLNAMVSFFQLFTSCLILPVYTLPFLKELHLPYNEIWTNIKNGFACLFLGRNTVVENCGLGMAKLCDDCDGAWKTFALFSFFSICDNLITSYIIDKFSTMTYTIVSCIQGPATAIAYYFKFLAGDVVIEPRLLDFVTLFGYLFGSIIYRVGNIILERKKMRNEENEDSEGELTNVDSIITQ", "details": "cited from earlier work"}}, "note": "“And” between values parts separate entries of the source, which are not always exact repeats. Equal values may be shown once."}
{"smiles": "CCN(CC)CCCC(C)Nc1ccnc2cc(Cl)ccc12", "note": "(stereo not drawn) [CQ, chloroquine]", "values": [{"measurement": "Activity at pH 4.5", "setting": "PfCRT variant E271A; E271A, 50 µM CQ, 1 h, mean ± SEM", "result": "1.01 ± 0.09", "unit": "pmol h-1 oocyte-1"}, {"measurement": "R-value", "setting": "PfCRT variant E271A; E271A, CQ transport at pH 4.5 / pH 6.0", "result": "0.61 ± 0.09"}, {"measurement": "E271A transport activity pH 4.5", "setting": "PfCRT variant E271A; pH 4.5, single replicates, Fig 1d left", "result": "1.17 pmol oocyte-1 h-1 and 1.13 pmol oocyte-1 h-1 and 0.65 pmol oocyte-1 h-1 and 0.98 pmol oocyte-1 h-1"}, {"measurement": "E271A transport activity pH 6.0", "setting": "PfCRT variant E271A; pH 6.0, single replicates, Fig 1d left", "result": "1.98 pmol oocyte-1 h-1 and 1.71 pmol oocyte-1 h-1 and 1.20 pmol oocyte-1 h-1 and 2.10 pmol oocyte-1 h-1 and 1.74 pmol oocyte-1 h-1"}, {"measurement": "share of full transport velocity", "setting": "PfCRT^Dd2; at the pH of the digestive vacuole of 5.2", "result": 60, "unit": "%"}, {"measurement": "pH of maximal CQ transport activity", "setting": "PfCRT^Dd2", "result": "~ 6.0 pH"}]}
